For one assay, the system named is Burkitt lymphoma. Particulars: single agent; cited from earlier work.
A further assay deals with Ku70. In words: Immunoprecipitation of LSD1 or SIRT1 in KCL-22 cells to detect interaction with Ku70. The assay is classed as cell-based. How it is done:
IP of LSD1 or SIRT1 was carried out in KCL-22 cells to detect their interaction with Ku70, respectively. […] (B) Without and with treatment of 1 mM H2O2 for 1 h and 0.25 μM camptothecin (CPT) for 12 h. Flag was used for IP control.
To explore the mechanisms, Applicants used immunoprecipitation (IP) assay to examine SIRT1, LSD1 and Ku70 interaction.

Another assay deals with KCL-22 CML cells. The following applies: KCL-22 CML cells upon imatinib treatment; cited from earlier work.
Where [1] appears, read: 2.5 μM imatinib (STI) for 24 and 48 h.

For the compound `O=c1[nH]c(S)nc(-c2ccccc2)c1Cc1c(O)ccc2ccccc12` [cambinol, 5-[(2-hydroxy-1-naphthyl)methyl]-2-mercapto-6-phenyl-4(3H)-pyrimidinone], the “sensitivity of Burkitt lymphoma” value in the assay on Burkitt lymphoma is “sensitive”.

As to `CC[C@@]1(O)C(=O)OCc2c1cc1n(c2=O)Cc2cc3ccccc3nc2-1` [camptothecin], the “LSD1/SIRT1 interaction with Ku70” value with Ku70 (0.25 μM camptothecin (CPT) for 12 h) is on record as “switch of LSD1/SIRT1 interaction with Ku70”.

In the case of `Cc1ccc(NC(=O)c2ccc(CN3CCN(C)CC3)cc2)cc1Nc1nccc(-c2cccnc2)n1` [imatinib], the “acquisition of T315I BCR-ABL kinase domain mutation” value in the assay on KCL-22 CML cells is listed as “rapidly acquire T315I BCR-ABL kinase domain mutation”. Also, in the assay on Ku70 (setting [1]), the “LSD1 interaction with Ku70” value was “reduced” and the “SIRT1 interaction with Ku70” value was “rapidly enhanced”. Moreover, the “total SIRT1 level” value with Ku70 (48 h drug treatment) is on record as “partially reduced”.

Take `OO` [hydrogen peroxide]: the “LSD1/SIRT1 interaction with Ku70” value with Ku70 (1 mM H2O2 for 1 h) is on record as “switch of LSD1/SIRT1 interaction with Ku70”.

Source of the values: patent US9987280B2, “SIRT1 inhibitors and stem cell rejuvenation” (City of Hope, priority 2013, dated 2018).
